Columns and labels:
PDE4D2 = PDE4D2 (Homo sapiens, UniProt Q08499); test: PDE4D2 enzyme experiment (AMP-Glo); conditions: read-out: PDE4D2 IC50 Binding; enzyme assay
PDE4B2 = PDE4B2 (Homo sapiens, UniProt Q07343); conditions: read-out: PDE4B2 IC50; enzyme assay
Flpin-293-PDE4B2 cells = Flpin-293-PDE4B2 cells (Homo sapiens, UniProt Q07343); test: cell-based; conditions: for inhibition at 0.001 µM: read-out: Cell Inhibition % @1 nM, 1 nM, Flpin-293-PDE4B2 cells; for inhibition at 0.01 µM: read-out: Cell Inhibition % @10 nM, 10 nM, Flpin-293-PDE4B2 cells; for inhibition at 0.1 µM: read-out: Cell Inhibition % @100 nM, 100 nM, Flpin-293-PDE4B2 cells
Sequence of Flpin-293-PDE4B2 cells (Q07343 1-564 isoform Q07343-2): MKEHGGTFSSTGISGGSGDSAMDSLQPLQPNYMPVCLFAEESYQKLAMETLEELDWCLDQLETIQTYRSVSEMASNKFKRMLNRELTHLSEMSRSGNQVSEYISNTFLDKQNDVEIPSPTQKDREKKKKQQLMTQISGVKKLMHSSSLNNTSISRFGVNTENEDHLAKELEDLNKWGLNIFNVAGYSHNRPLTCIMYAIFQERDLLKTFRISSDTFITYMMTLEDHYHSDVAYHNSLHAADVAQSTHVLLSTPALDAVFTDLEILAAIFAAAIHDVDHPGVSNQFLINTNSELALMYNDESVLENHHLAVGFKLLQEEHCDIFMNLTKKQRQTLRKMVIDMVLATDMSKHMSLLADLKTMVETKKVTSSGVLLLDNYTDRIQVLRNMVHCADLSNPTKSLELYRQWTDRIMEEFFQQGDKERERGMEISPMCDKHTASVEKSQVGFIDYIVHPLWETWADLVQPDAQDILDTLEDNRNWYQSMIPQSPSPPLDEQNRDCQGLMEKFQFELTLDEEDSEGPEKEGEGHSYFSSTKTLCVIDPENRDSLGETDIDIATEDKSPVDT

Sequence of PDE4B2 (Q07343 1-564 isoform Q07343-2, species assumed): as the sequence (Q07343 1-564 isoform Q07343-2) above
Sequence of PDE4D2 (Q08499 303-809 limits assumed): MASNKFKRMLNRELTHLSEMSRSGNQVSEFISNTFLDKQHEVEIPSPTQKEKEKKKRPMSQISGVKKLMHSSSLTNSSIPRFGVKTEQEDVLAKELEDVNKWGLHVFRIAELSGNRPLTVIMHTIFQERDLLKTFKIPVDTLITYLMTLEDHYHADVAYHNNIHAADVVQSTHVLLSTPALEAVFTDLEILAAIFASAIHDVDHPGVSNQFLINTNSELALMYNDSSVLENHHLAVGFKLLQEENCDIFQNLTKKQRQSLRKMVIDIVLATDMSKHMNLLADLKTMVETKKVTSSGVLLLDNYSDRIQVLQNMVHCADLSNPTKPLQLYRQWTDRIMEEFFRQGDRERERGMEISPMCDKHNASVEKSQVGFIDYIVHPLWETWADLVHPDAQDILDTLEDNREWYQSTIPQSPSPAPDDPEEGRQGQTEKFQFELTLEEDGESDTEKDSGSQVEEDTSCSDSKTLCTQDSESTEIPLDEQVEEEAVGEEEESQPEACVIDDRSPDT

Row | IC50 (PDE4D2) [nM] | IC50 (PDE4B2) [nM] | inhibition at 0.001 µM (Flpin-293-PDE4B2 cells) [%] | inhibition at 0.01 µM (Flpin-293-PDE4B2 cells) [%] | inhibition at 0.1 µM (Flpin-293-PDE4B2 cells) [%] | Molecule
1 | 23.8 | 13.3 |  |  |  | Cn1cnc(Nc2nc(N3CCc4cc(N5CCCC5)ccc4C3)nc3c2[S+]([O-])CC3)c1 (stereo not shown) [Compound 197]
2 | 1.21 |  |  |  |  | C[C@H]1c2ccc(N3CCCC3)cc2CCN1c1nc2c(c(Nc3cnn(CCO)c3)n1)[S+]([O-])CC2 (stereo partly shown) [Compound 210]
3 | 0.155 | 0.0646 | 24.7 | 93.2 | 101 | [O-][S+]1CCc2nc(N3CCc4cc(N5CCCC5)ccc4C3)nc(NC3(CO)CC3)c21 (stereo not shown) [Compound 186]
4 | 1.79 | 0.608 | 18.1 | 67.4 | 97.7 | [O-][S+]1CCc2nc(N3CCc4cc(N5CCCC5)ccc4C3)nc(NCCO)c21 (stereo not shown) [Compound 198]
5 | 1.29 | 0.729 | 1.97 | 26.7 | 86.9 | CN1CCN(c2ccc3c(c2)CCN(c2nc4c(c(NC5(CO)CCC5)n2)[S+]([O-])CC4)C3)CC1 (stereo not shown) [Compound 170]
6 | 1.08 | 0.333 | 4.28 | 33.6 | 92.9 | [O-][S+]1CCc2nc(N3CCc4cc(N5CCCC5)ccc4C3)nc(Nc3cn[nH]c3)c21 (stereo not shown) [Compound 194]
7 | 1.76 | 1.26 | 1.42 | 25.7 | 91.7 | [O-][S+]1CCc2nc(N3CCc4cc(N5CCC(C(F)(F)F)C5)ccc4C3)nc(NC3(CO)CCC3)c21 (stereo not shown) [Compound 156]
8 | 0.231 | 0.197 |  |  |  | [O-][S+]1CCc2nc(N3CCc4cc(N5C[C@@H]6[C@@H](CO)[C@@H]6C5)ccc4C3)nc(NC3(CO)CCC3)c21 (stereo partly shown) [Compound 174]
9 | 0.851 | 0.182 | 8.9 | 35.2 | 94.3 | [O-][S+]1CCc2nc(N3CCc4cc(N5CCCC5)ccc4C3)nc(Nc3cnn(CCO)c3)c21 (stereo not shown) [Compound 191]
10 | 0.52 | 0.182 | 10.2 | 76.8 | 99.9 | [O-][S+]1CCc2nc(N3CCc4cc(N5C[C@H]6C[C@@H]5CO6)ccc4C3)nc(NC3(CO)CCC3)c21 (stereo partly shown) [Compound 153]
11 | 0.45 | 0.14 | 15.4 | 60.3 | 99.2 | [O-][S+]1CCc2nc(N3CCc4cc(N5CCCC5)ccc4C3)nc(Nc3cnn(C4COC4)c3)c21 (stereo not shown) [Compound 192]
12 | 0.716 | 0.607 | 6.1 | 51.5 | 97.8 | C[C@H]1CCN1c1ccc2c(c1)CCN(c1nc3c(c(NC4(CO)CCC4)n1)[S+]([O-])CC3)C2 (stereo partly shown) [Compound 176]
13 | 1.1 | 0.7 | 3.99 | 37.3 | 92.1 | CN(C)C1CCN(c2ccc3c(c2)CCN(c2nc4c(c(NC5(CO)CCC5)n2)[S+]([O-])CC4)C3)C1 (stereo not shown) [Compound 148]
14 | 1.55 | 0.515 | 10.5 | 33 | 94.2 | C[C@@H]1CCCN1c1ccc2c(c1)CCN(c1nc3c(c(NC4(CO)CCC4)n1)[S+]([O-])CC3)C2 (stereo partly shown) [Compound 133]
15 | 2.04 | 0.838 | 5.4 | 49.9 | 96.8 | C[C@H]1Cc2cc(Cl)ccc2CN1c1nc2c(c(NC3(CO)CCC3)n1)[S+]([O-])CC2 (stereo partly shown) [Compound 122]
16 | 0.603 | 0.299 | 6.9 | 59.4 | 98.4 | CC1(O)CCN(c2ccc3c(c2)CCN(c2nc4c(c(NC5(CO)CCC5)n2)[S+]([O-])CC4)C3)C1 (stereo not shown) [Compound 175]
17 | 0.398 | 0.351 | 10.3 | 76.8 | 99.9 | [O-][S+]1CCc2nc(N3CCc4cc(N5CCC6(COC6)C5)ccc4C3)nc(NC3(CO)CCC3)c21 (stereo not shown) [Compound 165]
18 | 0.252 | 0.113 | 13.9 | 72.5 | 100 | [O-][S+]1CCc2nc(N3CCc4cc(N5CCCCC5)ccc4C3)nc(NC3(CO)CCC3)c21 (stereo not shown) [Compound 143]
19 | 0.116 | 0.45 | 25.3 | 93.8 | 101 | O=S1(=O)CCC(Nc2nc(N3CCc4cc(N5CCCC5)ccc4C3)nc3c2[S+]([O-])CC3)CC1 (stereo not shown) [Compound 187]
20 | 0.424 | 0.164 | 9.78 | 73 | 100 | NC(=O)Cc1ccc(Nc2nc(N3CCc4cc(Cl)ccc4C3)nc3c2[S+]([O-])CC3)cc1 (stereo not shown) [Compound 127]

Row | IC50 (PDE4D2) [nM] | IC50 (PDE4B2) [nM] | inhibition at 0.001 µM (Flpin-293-PDE4B2 cells) [%] | inhibition at 0.01 µM (Flpin-293-PDE4B2 cells) [%] | inhibition at 0.1 µM (Flpin-293-PDE4B2 cells) [%] | Molecule
21 | 0.333 | 0.147 | 16.6 | 76 | 98.7 | [O-][S+]1CCc2nc(N3CCc4cc(N5CC[C@@H](CO)C5)ccc4C3)nc(NC3(CO)CCC3)c21 (stereo partly shown) [Compound 131]
22 | 0.145 | 0.066 | 24.4 | 93.5 | 101 | [O-][S+]1CCc2nc(N3CCc4cc(N5CCCC5)ccc4C3)nc(NC3CCOCC3)c21 (stereo not shown) [Compound 189]
23 | 0.561 | 0.108 | 6.54 | 46.9 | 98.6 | Cn1cc(Nc2nc(N3CCc4cc(N5CCCC5)ccc4C3)nc3c2[S+]([O-])CC3)cn1 (stereo not shown) [Compound 168]
24 | 1.08 | 0.43 | 5.99 | 38.3 | 96 | [O-][S+]1CCc2nc(N3CCc4cc(N5CCC(F)C5)ccc4C3)nc(NC3(CO)CCC3)c21 (stereo not shown) [Compound 149]
25 | 0.502 | 0.508 | 7.25 | 53.3 | 98.6 | [O-][S+]1CCc2nc(N3CCc4cc(N5CC6CC5C6)ccc4C3)nc(NC3(CO)CCC3)c21 (stereo not shown) [Compound 177]
26 | 0.59 | 0.297 | 11.8 | 57.9 | 100 | [O-][S+]1CCc2nc(N3CCc4cc(N5CC[C@@H](O)C5)ccc4C3)nc(NC3(CO)CCC3)c21 (stereo partly shown) [Compound 130]
27 | 0.75 | 0.227 | 11.7 | 50.4 | 98.2 | COc1nn(C)cc1Nc1nc(N2CCc3cc(N4CCCC4)ccc3[C@@H]2C)nc2c1[S+]([O-])CC2 (stereo partly shown) [Compound 216]
28 | 1.27 | 0.417 | 4.88 | 38.2 | 96 | COc1nn(C)cc1Nc1nc(N2CCc3cc(N4CCCC4)ccc3C2)nc2c1[S+]([O-])CC2 (stereo not shown) [Compound 193]
29 | 0.0825 | 0.0407 | 48.1 | 98.3 | 101 | CN1CC(Nc2nc(N3CCc4cc(Cl)ccc4C3)nc3c2[S+]([O-])CC3)CCC1=O (stereo not shown) [Compound 136]
30 | 0.73 | 0.387 | 8.72 | 39.6 | 96.6 | [O-][S+]1CCc2nc(N3CCc4cc(N5CCCC5)ccc4C3)nc(N3CCC[C@H]3CO)c21 (stereo partly shown) [Compound 188]
31 | 0.46 | 0.502 | 9.95 | 51.5 | 92.2 | CN1CC2CN(c3ccc4c(c3)CCN(c3nc5c(c(NC6(CO)CCC6)n3)[S+]([O-])CC5)C4)CC2C1 (stereo not shown) [Compound 179]
32 | 0.651 | 0.368 | 16.2 | 78.6 | 102 | [O-][S+]1CCc2nc(N3CCc4cc(N5CCC[C@H]5CO)ccc4C3)nc(NC3(CO)CCC3)c21 (stereo partly shown) [Compound 132]
33 | 2.79 | 1.37 | 14 | 55.1 | 96 | [O-][S+]1CCc2nc(N3CC[C@@H]4c5ccc(Cl)nc5OC[C@H]4C3)nc(NC3(CO)CCC3)c21 (stereo partly shown) [Compound 119]
34 | 0.876 |  |  |  |  | (R)-2-(7-fluoro-6-(pyrrolidin-1-yl)-3,4-dihydroisoquinolin-2(1H)-yl)-4-((1-(hydroxymethyl)cyclobutyl)amino)-6,7-dihydrothieno[3,2-d]pyrimidine 5-oxide [Compound 181]
35 | 48.2 | 13.5 | 0.4 | 10 | 29.4 | C[C@@H]1Cc2cc(Cl)ccc2CN1c1nc2c(c(NC3(CO)CCC3)n1)[S+]([O-])CC2 (stereo partly shown) [Compound 121]
36 | 0.584 | 0.589 | 10.7 | 52.8 | 93.8 | CN1C[C@@H]2CCN(c3ccc4c(c3)CCN(c3nc5c(c(NC6(CO)CCC6)n3)[S+]([O-])CC5)C4)[C@@H]2C1 (stereo partly shown) [Compound 162]
37 | 0.0263 | 0.0251 | 75.3 | 100 | 101 | CN1C[C@@H](Nc2nc(N3CCc4cc(N5CCCC5)ccc4C3)nc3c2[S+]([O-])CC3)CCC1=O (stereo partly shown) [Compound 185]
38 | 0.766 | 0.22 |  |  |  | C[C@H]1c2ccc(N3CCCC3)cc2CCN1c1nc2c(c(Nc3cnn(C4COC4)c3)n1)[S+]([O-])CC2 (stereo partly shown) [Compound 208]
39 | 1.12 | 0.956 |  |  |  | [O-][S+]1CCc2nc(N3CCc4nc(N5CCCC5)sc4C3)nc(NC3(CO)CCC3)c21 (stereo not shown) [Compound 195]
